Reference: patent US10287276B2, “Heteroaryl-1,2,4-triazole and heteroaryl-tetrazole compounds for controlling ectoparasites” (Elanco Tiergesundheit AG, priority 2016, dated 2019)

Key:
[1] = tested on: Ctenocephalides Felis (Cat Flea); assay: Activity in vitro against Ctenocephalides felis (cat flea), Assay B; conditions: Ctenocephalides felis; at 10 ppm in bovine blood; % mortality at 48 hours post infestation; read-out: efficacy (EC50)
Method: Activity In Vitro Against Ctenocephalides Felis (Cat Flea)—Assay B
Test compounds are added to organic bovine blood contained in an artificial feeding container. Compounds with known insecticidal activity are included to serve as positive controls. Newly emerged unfed adult fleas from a laboratory colony are aspirated into each vial. The test cages are maintained using the artificial feeding apparatus to allow ingestion of compound. Fleas are evaluated for % mortality at 48 hours post infestation. Fleas showing normal movement and/or jumping ability are considered viable and those showing no movement are scored as dead.

[2] = tested on: Rhipicephalus sanguineus (Dog Tick); assay: Activity in vitro against Rhipicephalus sanguineus (dog tick), Assay B, coated glass vials; conditions: Rhipicephalus sanguineus; at 20 ppm; contact with coated vials, assessment at 48 hours; read-out: efficacy (EC50)
Method: Activity In Vitro Against Rhipicephalus sanguineus (Dog Tick)—Assay B
A solution of the test compounds is used to coat the inner wall of glass vials containing a filter paper on the bottom of each vial. A second filter paper is also coated and placed in the cap of the vial. Vials and caps are allowed to dry overnight. Each treated vial is infested with ticks. Contact of the ticks with residues is induced by holding the vials in a controlled environment and assessment is performed at 48 hours after application in comparison with untreated glass vials and solvent-treated glass vials.

[3] = tested on: Lucilla Cuprina (Australian Sheep Blowfly); assay: Activity in vitro against Lucilla cuprina (Australian sheep blowfly), Assay B; parameters: species or system L. cuprina; conditions: Lucilia cuprina; at 10 ppm; larvae, compound in bovine serum, percent mortality at 24 hours; read-out: efficacy (EC50)
Method: Activity In Vitro Against Lucilla Cuprina (Australian Sheep Blowfly)—Assay B
Compound formulated in bovine serum is dispensed into scintillation. A dental cotton roll is added to each vial to absorb the compound solution. L. cuprina larvae are added to each treatment vial. The vials are capped and held for 24 hours in an environmental chamber at appropriate temperature, humidity and light/dark cycles. Evaluations are only made at 24 hours because dead larvae after 24 hours may be cannibalized by the remaining live ones. Vials are examined for percent mortality.

[4] = tested on: Rhipicephalus sanguineus Nymphs; assay: Activity in vivo against Rhipicephalus sanguineus nymphs on Mongolian gerbils; conditions: topical, 0 h, pour on application day 0, tick number reduction vs placebo, Abbott's formula, read-out: efficacy (EC90)
Method: On day 0, gerbils are treated with the test compound at a given dose by pour on application. On day +1 (+2), the animals are infested with nymphs of R. sanguineus. Ticks are left on the animals until full repletion. Seven days after infestation nymphs dropped off fully engorged are collected and counted. They are kept until molting to also evaluate growth regulating activity of the test compound. Efficacy in killing (and growth regulating) is expressed as a tick number (and molted tick number) reduction in comparison with a placebo treated group, using the Abbott's formula:
n=number of live ticks. T=treated group. Co=control/placebo group.

[5] = tested on: Lice (Polyplax serrata); assay: Activity in vivo against lice (Polyplax serrata) in mice (topical); conditions: pour-on application, live lice on day +4 and +14, Henderson & Tilton formula, read-out: efficacy (EC90)
Method: Activity In Vivo Against Lice (Polyplax serrata) in Mice (Topical) Mice naturally infected with P. serrata are treated with the formulated test compound on day 0 by pour-on application. On day +4 and +14, efficacy is evaluated by counting the number of live lice under a binocular. Efficacy at the two time points is expressed as a comparison of lice numbers counted on the same mouse before treatment, using the Henderson & Tilton formula, taking also into account lice numbers found on mice treated with the empty formulation (placebo group): [formula] n=number of lice, T=treated group, Co=control/placebo group.

[6] = tested on: Ctenocephalides Felis (Cat Flea); assay: Activity in vitro against Ctenocephalides felis (cat flea), Assay A; conditions: Ctenocephalides felis; at 100 ppm; adult fleas fed on treated blood for 24 h; dead fleas counted; read-out: efficacy (EC80)
Method: Activity In Vitro Against Ctenocephalides Felis (Cat Flea)—Assay A
A mixed adult population of fleas is placed in a suitably formatted 96-well plate allowing fleas to access and feed on treated blood via an artificial feeding system. Fleas are fed on treated blood for 24 h, after which the compound effect is recorded. Insecticidal activity is determined on the basis of the number of dead fleas recovered from the feeding system.

[7] = tested on: Lucilla Cuprina (Australian sheep blowfly); assay: Activity in vitro against Lucilla cuprina (Australian sheep blowfly), Assay A; conditions: Lucilia cuprina, 96 h; at 32 ppm; eggs on agar-based medium, 4 days at 28° C. and 60% relative humidity; read-out: efficacy (EC80)
[8] = tested on: Rhipicephalus sanguineus (Dog Tick); assay: Activity in vitro against Rhipicephalus sanguineus (dog tick), Assay A, contact test; conditions: Rhipicephalus sanguineus, 168 h, at 100 ppm, adult ticks, 28° C. and 80% relative humidity for 7 days, read-out: efficacy (EC80)
[9] = tested on: Engorged Female Rhipicephalus microplus (Cattle Tick); assay: Activity in vitro against engorged female Rhipicephalus microplus (cattle tick), contact test; conditions: 672 h, organophosphorous-resistant Ultimo strain, evaluation 28 days later on mortality, oviposition and hatched larvae, read-out: efficacy (EC80)
In short: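 Contact test: wells pre-coated with compound serial dilutions, 10 engorged females of organophosphate-resistant Ultimo strain per well, triplicates. Incubated 28 °C, 80% RH; mortality, oviposition and larval hatch assessed after 28 days.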

Row | Compound | pest or weed control at 10 ppm [1] [%] | pest or weed control at 20 ppm [2] [%] | pest or weed control at 10 ppm [3] [%] | inhibition in vivo at 32 mg/kg [4] [%] | inhibition in vivo at 32 mg/kg [5] [%] | pest or weed control at 100 ppm [6] [%] | pest or weed control at 32 ppm [7] [%] | pest or weed control at 100 ppm [8] [%] | pest or weed control at 200 ppm [9] [%]
1 | CC(c1ncnn1-c1ncccn1)N(C)C(=O)c1cccc(C#N)c1 (centres unmarked) [Example 55, 3-Cyano-N-methyl-N-[1-(2-pyrimidin-2-yl-1,2,4-triazol-3-yl)ethyl]benzamide] | > 50 | > 50 | – | – | – | – | – | – | –
2 | C[C@H](NC(=O)c1cc(C(F)(F)F)cc(C(F)(F)F)c1)c1ncnn1-c1ncccn1 [Example 66, N-[(1S)-1-(2-Pyrimidin-2-yl-1,2,4-triazol-3-yl)ethyl]-3,5-bis(trifluoromethyl)benzamide] | > 50 | – | > 50 | – | – | – | – | – | –
3 | C[C@@H](c1ncnn1-c1ncc(F)cn1)N(CC1CC1)C(=O)c1cc(C(F)(F)F)cc(C(F)(F)F)c1 [Example 64, N-(Cyclopropylmethyl)-N-[(1S)-1-[2-(5-fluoropyrimidin-2-yl)-1,2,4-triazol-3-yl]ethyl]-3,5-bis(trifluoromethyl)benzamide] | > 50 | – | > 50 | – | – | – | – | – | –
4 | CC(c1ncnn1-c1ncccn1)N(CC1CC1)C(=O)c1cc(Br)cc(C(F)(F)F)c1 (centres unmarked) [Example 62, 3-Bromo-N-(cyclopropylmethyl)-N-[1-(2-pyrimidin-2-yl-1,2,4-triazol-3-yl)ethyl]-5-(trifluoromethyl)benzamide] | – | > 50 | > 50 | – | – | – | – | – | –
5 | CC(c1ncnn1-c1ncccn1)N(CC#N)C(=O)c1cc(C(F)(F)F)cc(C(F)(F)F)c1 (centres unmarked) [Example 56, N-(Cyanomethyl)-N-[1-(2-pyrimidin-2-yl-1,2,4-triazol-3-yl)ethyl]-3,5-bis(trifluoromethyl)benzamide] | > 50 | – | > 50 | – | – | – | – | – | –
6 | CC(c1ncnn1-c1ncccn1)N(CC1CC1)C(=O)c1cc(C(F)(F)F)nc(C(F)(F)F)c1 (centres unmarked) [Example 51, N-(Cyclopropylmethyl)-N-[1-(2-pyrimidin-2-yl-1,2,4-triazol-3-yl)ethyl]-2,6-bis(trifluoromethyl)pyridine-4-carboxamide] | > 50 | – | > 50 | – | – | – | – | – | –
7 | C#CCN(C(=O)c1cccc(C#N)c1)C(C)c1ncnn1-c1ncccn1 (centres unmarked) [Example 54, 3-Cyano-N-prop-2-ynyl-N-[1-(2-pyrimidin-2-yl-1,2,4-triazol-3-yl)ethyl]benzamide] | > 50 | > 50 | – | – | – | – | – | – | –
8 | CC(c1ncnn1-c1ncccn1)N(CCC(F)(F)F)C(=O)c1cc(C(F)(F)F)cc(C(F)(F)F)c1 (centres unmarked) [Example 20, N-[1-(2-Pyrimidin-2-yl-1,2,4-triazol-3-yl)ethyl]-3,5-bis(trifluoromethyl)-N-(3,3,3-trifluoropropyl)benzamide] | – | – | – | > 90 | > 90 | > 80 | > 80 | > 80 | > 80
9 | CC(NC(=O)c1cc(C#N)cc(C(F)(F)F)c1)c1ncnn1-c1ncccn1 (centres unmarked) [Example 57, 3-Cyano-N-[1-(2-pyrimidin-2-yl-1,2,4-triazol-3-yl)ethyl]-5-(trifluoromethyl)benzamide] | > 50 | – | > 50 | – | – | – | – | – | –
10 | CC(c1ncnn1-c1ncccn1)N(CC1CC1)C(=O)c1cc(Cl)cc(C(F)(F)F)c1 (centres unmarked) [Example 40, 3-Chloro-N-(cyclopropylmethyl)-N-[1-(2-pyrimidin-2-yl-1,2,4-triazol-3-yl)ethyl]-5-(trifluoromethyl)benzamide] | – | – | – | > 90 | > 90 | > 80 | > 80 | > 80 | > 80
11 | CC(c1ncnn1-c1ncccn1)N(C)C(=O)c1cc(C(N)=S)cc(C(F)(F)F)c1 (centres unmarked) [Example 72, 3-Carbamothioyl-N-methyl-N-[1-(2-pyrimidin-2-yl-1,2,4-triazol-3-yl)ethyl]-5-(trifluoromethyl)benzamide] | > 50 | – | > 50 | – | – | – | – | – | –
12 | CC(c1ncnn1-c1ccccn1)N(CC1CC1)C(=O)c1cc(C(F)(F)F)cc(C(F)(F)F)c1 (centres unmarked) [Example 1, N-(Cyclopropylmethyl)-N-[1-[2-(2-pyridyl)-1,24-triazol-3-yl]ethyl]-3,5-bis(trifluoromethyl)benzamide] | – | – | – | > 90 | > 90 | > 80 | > 80 | > 80 | > 80
13 | CC(c1ncnn1-c1ncccn1)N(CC1CC1)C(=O)c1cc(C(F)(F)F)cc(C(F)(F)F)c1 (centres unmarked) [Example 48, N-(Cyclopropylmethyl)-N-[1-(2-pyrimidin-2-yl-1,2,4-triazol-3-yl)ethyl]-3,5-bis(trifluoromethyl)benzamide] | – | – | – | > 90 | > 90 | > 80 | > 80 | > 80 | > 80
14 | CC(c1ncnn1-c1ncccn1)N(CCF)C(=O)c1cc(C(F)(F)F)cc(C(F)(F)F)c1 (centres unmarked) [Example 19, N-(2-Fluoroethyl)-N-[1-(2-pyrimidin-2-yl-1,2,4-triazol-3-yl]ethyl]-3,5-bis(trifluoromethyl)benzamide] | – | – | – | > 90 | > 90 | > 80 | > 80 | > 80 | > 80
15 | CCN(C(=O)c1cc(C(F)(F)F)cc(C(F)(F)F)c1)C(C)c1ncnn1-c1ncccn1 (centres unmarked) [Example 53, N-Ethyl-N-[1-(2-pyrimidin-2-yl-1,2,4-triazol-3-yl)ethyl]-3,5-bis(trifluoromethyl)benzamide] | > 50 | – | > 50 | – | – | – | – | – | –
16 | COC(=O)c1nc(C(C)NC(=O)c2cc(C(F)(F)F)cc(C(F)(F)F)c2)n(-c2ncccn2)n1 (centres unmarked) [Example 74, Methyl 5-[1-[[3,5-bis(trifluoromethyl)benzoyl]amino]ethyl]-1-pyrimidin-2-yl-1,2,4-triazole-3-carboxylate] | – | > 50 | – | – | – | – | – | – | –
17 | CCOC(OCC)c1nc(C(C)NC(=O)c2cc(C(F)(F)F)cc(C(F)(F)F)c2)n(-c2ncccn2)n1 (centres unmarked) [Example 73, N-[1-[5-(Diethoxymethyl)-2-pyrimidin-2-yl-1,2,4-triazol-3-yl]ethyl]-3,5-bis(trifluoromethyl)benzamide] | > 50 | > 50 | – | – | – | – | – | – | –
18 | CC(c1ncnn1-c1ccccn1)N(CCF)C(=O)c1cc(C(F)(F)F)cc(C(F)(F)F)c1 (centres unmarked) [Example 11, N-(2-Fluoroethyl)-N-[1-[2-(2-pyridyl)-1,2,4-triazol-3-yl]ethyl]-3,5-bis(trifluoromethyl)benzamide] | – | – | – | > 90 | > 90 | > 80 | > 80 | > 80 | > 80
